From paper PMC6273342, “Cytotoxic Alkaloids from the Stem of Xylopia laevigata” (Molecules, 2016)
Where two headings read alike, the source gives them in different places.

Experiments:
[1] = tested on: HepG2 (human hepatocellular carcinoma); assay: Alamar Blue cytotoxicity assay, HepG2; format: cell-based; conditions: 72 h incubation
From the text: (§1) Camargo, São Paulo, Brazil.

[2] = tested on: HL-60 (human promyelocytic leukemia); assay: Alamar Blue cytotoxicity assay, HL-60; format: cell-based; conditions: for IC50: Homo sapiens, HL-60, Alamar Blue, 72 h incubation, read-out: IC50 HL60; for selectivity index (SI): SI = IC50[PBMC]/IC50[HL-60]
Procedure: (§3) B16-F10, HepG2, K562 and HL-60 tumor cell lines were kindly donated by Hospital A.C. […] Cells were maintained in RPMI 1640 medium (Gibco-BRL, Gaithersburg, MD, USA) with 10% fetal bovine serum (Cultilab, Campinas, Brazil), 2 mM L-glutamine (Vetec Química Fina, Duque de Caxias, Brazil) and 50 μg/mL gentamycin (Novafarma, Anápolis, Brazil). Adherent cells were collected by treatment with 0.25% trypsin-EDTA solution (Gibco-BRL). All cell lines were cultured in flasks at 37 °C in 5% CO2 and sub-cultured every 3–4 days to maintain exponential growth. All cell lines were tested for mycoplasma using a Mycoplasma Stain Kit (Sigma-Aldrich, St. Louis, MO, USA) to confirm that the cells were free from contamination.
(§4) Cell viability was quantified using the Alamar Blue assay, according to Ahmed et al. [23]. Cells were placed in 96-well plates for all experiments (0.7 × 10^5 cells/mL for adherent cells or 0.3 × 10^6 cells/mL for suspended cells in 100 μL of medium). After 24 h, the alkaloids (in a range of eight different concentrations varying from 0.19 to 25 μg/mL) were dissolved in dimethyl sulfoxide (DMSO, Sigma-Aldrich Co.), and the solution was added to each well and incubated for 72 h. […] Negative controls received the vehicle that was used for diluting the alkaloids (0.5% DMSO). Four (for cell lines) or 24 h (for PBMCs) before the end of incubation, 20 μL of a stock solution (0.312 mg/mL) of the Alamar Blue (resazurin, Sigma-Aldrich Co.) was added to each well. The absorbance at 570 nm and 600 nm was measured using a SpectraMax 190 Microplate Reader (Molecular Devices, Sunnyvale, CA, USA), and the drug effect was quantified as the percentage of control absorbance.

[3] = tested on: B16-F10 (mouse melanoma); assay: Alamar Blue cytotoxicity assay, B16-F10; format: cell-based; conditions: 72 h incubation
From the text: as §1

[4] = tested on: peripheral blood mononuclear cells (PBMCs); assay: Alamar Blue cytotoxicity assay, non-tumor PBMCs; format: cell-based; conditions: Homo sapiens, PBMC, 72 h incubation, ConA-stimulated PBMCs
Procedure: Heparinized blood was collected from 20- to 35-year-old, healthy non-smokers who had not taken any drugs for at least 15 days prior to sampling, and the peripheral blood mononuclear cells (PBMCs) were isolated using a Ficoll density gradient in a Ficoll-Paque Plus (GE Healthcare Bio-Sciences AB, Uppsala, Sweden). PBMCs were washed and resuspended at a concentration of 0.3 × 10^6 cells/mL in RPMI 1640 medium with 20% fetal bovine serum, 2 mM L-glutamine and 50 μg/mL gentamycin at 37 °C with 5% CO2. Concanavalin A (ConA, Sigma-Aldrich Co.) was used as a mitogen to trigger cell division in T-lymphocytes. ConA (10 μg/mL) was added at the beginning of culture, and the cells were treated with the test compounds after 24 h. Cell viability was examined using a trypan blue exclusion assay for all experiments. Over 90% of the cells were viable at the beginning of the culture. The Research Ethics Committee of the Oswaldo Cruz Foundation (Salvador, Bahia, Brazil) approved the experimental protocol (#031019/2013). All participants signed a written informed consent to participate in the study.

[5] = tested on: K562 (human chronic myelocytic leukemia); assay: Alamar Blue cytotoxicity assay, K562; format: cell-based; conditions: 72 h incubation
From the text: as §1

[6] = design: method as in PMID 22491683; conditions: previously studied; cited from earlier work
[7] = tested on: tumor cell lines B16-F10, HepG2, K562 and HL-60; assay: Alamar Blue cytotoxicity assay, summary over the tumor cell lines tested; conditions: 72 h, read-out: IC50 in at least one of the tumor cell lines tested
Procedure: as §3, §4

[8] = in vitro; conditions: mouse (B16-F10); human (HepG2, K562, HL-60)
Procedure: as §3, §4

[9] = tested on: HepG2 cells; assay: Acridine Orange/ethidium bromide staining, fluorescence microscopy, HepG2; format: cell-based, human; conditions: HepG2, 24 h; lanuginosine 10 and 20 μg/mL, (+)-xylopine 5 and 10 μg/mL; p < 0.05
Procedure: (§2) The following set of experiments was performed to investigate the mechanisms involved in the cytotoxic action of the alkaloids lanuginosine and (+)-xylopine. In all experiments, 2 mL of a HepG2 cell solution (0.7 × 10^5 cells/mL) was placed in 24-well plates and incubated overnight to allow the cells to adhere to the plate surface. The cells were then treated for 24 h with the alkaloids lanuginosine (10 and 20 μg/mL) and (+)-xylopine (5 and 10 μg/mL). The negative control was treated with the vehicle (0.2% DMSO) used for diluting the alkaloids. […] Cell viability was assessed for all experiments using a Trypan Blue exclusion assay.
Cells were pelleted and resuspended in saline (25 μL). Then, 1 μL of aqueous solution of AO/EB (100 μg/mL, Sigma-Aldrich Co.) was added, and the cell viability changes were observed under a fluorescence microscope (Olympus BX41). In this assay, AO permeates all cells and makes the nuclei appear green. EB is only taken up by cells when the cytoplasmic membrane integrity is lost and stains the nucleus red. EB also dominates over AO. Thus, live cells have a normal green nucleus; early apoptotic cells have a bright green nucleus with condensed or fragmented chromatin; late apoptotic cells display condensed and fragmented orange chromatin; cells that have died from direct necrosis have a structurally normal orange nucleus. Three hundred cells were counted per sample and classified as viable, apoptotic or necrotic.

[10] = tested on: HepG2 cells; assay: Annexin assay (phosphatidylserine externalization, flow cytometry), HepG2; format: cell-based, human; conditions: HepG2, 24 h; p < 0.05; without affecting the cell membrane integrity
Procedure: as §2
Phosphatidylserine externalization was analyzed by flow cytometry. A FITC annexin V apoptosis detection kit (BD Biosciences, San Jose, CA, USA) was used to determine cell viability (viable, early apoptotic, late apoptotic and necrotic cells). Cells were washed twice with saline and then resuspended in 100 μL of binding buffer with 5 μL of propidium iodide and 5 μL of FITC annexin V. The cells were gently mixed on a vortexer and incubated for 15 min at room temperature (20–25 °C) in the dark. Afterwards, 400 μL of binding buffer was added to each tube and the cells were analyzed by flow cytometry on a BD LSRFortessa cytometer using BD FACSDiva Software (BD Biosciences) and Flowjo Software 10 (Flowjo LCC, Ashland, OR, USA). Ten thousand events were evaluated per experiment and cellular debris was omitted from the analysis.

[11] = tested on: HepG2 cells; assay: Internucleosomal DNA fragmentation and cell cycle distribution (flow cytometry, propidium iodide), HepG2; format: cell-based, human; conditions: HepG2, 24 h; for Cell Cycle Phases (%) G2/M: NC 19.93 ± 6.12; for Cell Cycle Phases (%) G1: NC 51.50 ± 4.02
Procedure: as §2
Cells were harvested in a lysis solution containing 0.1% triton X-100 (Sigma Chemical Co., St. Louis, MO, USA), 2 µg/mL propidium iodide (Sigma Chemical Co.), 0.1% sodium citrate and 100 µg/mL RNAse (Sigma Chemical Co.). Cell fluorescence was determined by flow cytometry on a BD LSRFortessa cytometer using BD FACSDiva Software (BD Biosciences) and Flowjo Software 10. Ten thousand events were evaluated per experiment and cellular debris was omitted from the analysis.

[12] = tested on: HepG2 cells; assay: Morphological analysis with May-Grünwald-Giemsa staining, HepG2; format: cell-based, human; conditions: HepG2, 24 h; lanuginosine 10 and 20 μg/mL, (+)-xylopine 5 and 10 μg/mL
Procedure: as §2
To evaluate alterations in morphology, cells were cultured under a coverslip, fixed with methanol for 30 s and stained with May-Grünwald-Giemsa stain. Morphological changes were examined by light microscopy (Olympus BX41, Tokyo, Japan) using Image-Pro software (Media Cybernetics, Rockville, MD, USA).

[13] = tested on: HepG2 cells; assay: Trypan Blue dye exclusion, HepG2; format: cell-based, human; conditions: HepG2, 24 h, lanuginosine 10 and 20 μg/mL, (+)-xylopine 5 and 10 μg/mL
Procedure: as §2

SMILES	IC50 [1] [µg/mL]	IC50 ([1]; value in brackets) [µM]	IC50 [2] [µg/mL]	IC50 ([2]; value in brackets) [µM]	selectivity index (SI) [2]	IC50 [3] [µg/mL]	IC50 ([3]; value in brackets) [µM]	IC50 [4] [µg/mL]	IC50 ([4]; value in brackets) [µM]	IC50 [5] [µg/mL]	IC50 ([5]; value in brackets) [µM]	IC50 [7] [µg/mL]	further results
COc1cc2c(cc1OC)-c1c(OC)c(OC)cc3c1C(C2)NCC3 (single isomer, unassigned; (+)) [(+)-Norglaucine, (+)-norglaucine]	3.78	11	6.84	20	1.0	8.48	24.8	6.7	19.6	7.84	22.9	< 4	pro-apoptotic effect [6]: no effect was found
COc1cc2c(cc1OC)-c1c(OC)c(O)cc3c1C(C2)NCC3 (single isomer, unassigned; (+)) [(+)-Norpredicentrine, (+)-norpredicentrine]	> 25	–	> 25	–	–	> 25	–	> 25	–	> 25	–	–	IC50 at 72 h [8]: > 25 µg/mL
COc1ccc2c(c1)C[C@@H]1NCCc3cc4c(c-2c31)OCO4 [(+)-Xylopine, (+)-xylopine]	1.87	6.31	1.87	6.31	2.2	3.77	12.7	4.08	13.8	3.12	10.5	< 4	number of apoptotic cells (AO/EB) [9]: increased number of apoptotic cells; phosphatidylserine exposure [10]: significant increase in phosphatidylserine exposure; Cell Cycle Phases (%) S ([11]; 5 µg/mL, NC 16.11 ± 1.89): 10.80 ± 1.50 %; Cell Cycle Phases (%) G2/M ([11]; 5 µg/mL): 64.16 ± 2.56 %; Cell Cycle Phases (%) G1 ([11]; 5 µg/mL): 28.05 ± 3.15 %; Cell Cycle Phases (%) G2/M ([11]; 10 µg/mL): 39.96 ± 9.59 %; Cell Cycle Phases (%) G1 ([11]; 10 µg/mL): 20.43 ± 3.06 %; effect on cell cycle distribution ([11]; 5 and 10 μg/mL): total number of cells in the G2/M phase increased, indicating cell cycle arrest during this phase; internucleosomal DNA fragmentation (sub-G1) ([11]; 5 and 10 μg/mL, p < 0.05): increase in the internucleosomal DNA fragmentation; cell morphology [12]: morphology consistent with apoptosis, including chromatin condensation and fragmentation of the nuclei; number of non-viable cells [13]: without increasing the number of non-viable cells; number of viable cells ([13]; p < 0.05): reduce the number of viable cells
